The values that follow come from patent US20110098296A1, “Thiazole And Oxazole Kinase Inhibitors” (priority 2007, published 2011).

Structures can show the parent of a compound that is named as a salt. Some results are limits rather than exact numbers.

One test concerns Colo205 tumor cells. In words: Method C: Cell Growth Inhibition Assay (CellTiter-Glo), Colo205. Particulars: Homo sapiens, COLO 205, 72 h, 3 days, 4-parameter fit. The test is classed as cell-based. As to the method: (§1) Human breast tumor cells (BT474) were cultured in RPMI (Mediatech 50-011-PB), containing 10% FBS (JRH Biosciences 12176) and 1% penicillin-streptomycin (Invitrogen 15140). Human head and neck tumor cells (HN5) were cultured in high glucose DMEM (Mediatech 50-013-PB) containing 10% FBS and 1% penicillin-streptomycin. Human colon tumor cells (Colo205) were cultured in RPMI (Mediatech 50-020-PB) containing 10% FBS and 1% penicillin-streptomycin. Human melanoma cancer cells (SK-MEL-28) were cultured in EMEM with nonessential amino acids (Mediatech 50-011-PB) containing 10% FBS, 1% sodium pyruvate (JT Baker 3354-04), and 1% penicillin-streptomycin. Human melanoma cancer cells (A375P F11s) were cultured in RPMI (Mediatech 50-020-PB) containing 10% FBS, 1% sodium pyruvate, and 1% penicillin-streptomycin. Human colon cancer cells (HT-29) were cultured in high glucose DMEM (Mediatech 50-013-PB) containing 10% FBS and 1% penicillin-streptomycin. Human melanoma cancer cells (SK-MEL-3) were cultured in McCoy's 5A (50-025-PB) containing 15% FBS, and 1% penicillin-streptomycin. All cell lines were maintained at 37° C. in a humidified 5% CO2, 95% air incubator. Cells were harvested using trypsin/EDTA (Invitrogen 25200), counted using an haemocytometer, and plated. For 96-well assays (using white full-area NUNC plates cat. #136102), cells were plated in 105 μL at the following densities (cells/well): HN5, 500; Colo205, 500; SK-MEL-28, 500; A375P-F11s, 500; HT-29, 500; SK-MEL-3, 500; and BT474, 3000. For 384-well assays (white full-area NUNC plates, cat. #781080), cells were plated in 48 μL at the following densities (cells/well): HN5, 500; Colo205, 500; SK-MEL-28, 500; A375P-F11s, 500; HT29, 500; SK-MEL-3, 500; and BT474, 2000.
(§2) The next day, compounds were diluted as follow: For 96-well assays, 13.5 μL of compound in DMSO were diluted using nine (9) serial 1:3 dilutions of 4.5 μL in 9 μL of DMSO. Medium (270 μl/well of RPMI with 10% FBS and 1% penicillin-streptomycin) was added to the plates. Aliquots (7 μl) were added to cells in the final assay giving a final DMSO concentration of 0.2%. For 384-well assays, 15 μL of compound in DMSO were diluted using nine (9) serial 1:3 dilutions of 5 μL in 10 μL of DMSO, followed by a further dilution of 5 μL of compound with 95 μL of medium, of which 2 μL were added to cells in the final assay giving a final DMSO concentration of 0.2%. Cells were incubated at 37° C., 5% CO2 for 3 days.
(§3) Total ATP was measured (as a surrogate estimate of cell number) using CellTiter-Glo® reagent (Promega G7571). Briefly, plates were removed from the incubator and allowed to equilibrate to room temperature for 30 minutes. CellTiter-Glo® (25 μL or 55 μL for 384-well or 96-well assays, respectively) reagent was added to each well and plates were shaken on an orbital plate shaker for 2 mins. Plates were incubated without shaking for a further 30 mins and read on an LJL Analyst GT reader in luminometer mode with an integration time of 0.5 seconds per well. Percent inhibition of cell growth was calculated relative to DMSO vehicle-treated control wells. Concentration of compound required to give 50% inhibition of vehicle-treated control cell growth (IC50) was interpolated using a 4-parameter fit for determining IC50 using the following equation: Y=A+((B−A)/(1+((C/X)̂D))) where X=IC50.
(Cellular ATP, detected with luciferase, serves as a proxy for viable cell number.)

For a further test, the target named is T1, EGFR (Homo sapiens, UniProt P00533).
T1 construct: made in house; host or cells: baculovirus expression system
T1 sequence (P00533 25-1210): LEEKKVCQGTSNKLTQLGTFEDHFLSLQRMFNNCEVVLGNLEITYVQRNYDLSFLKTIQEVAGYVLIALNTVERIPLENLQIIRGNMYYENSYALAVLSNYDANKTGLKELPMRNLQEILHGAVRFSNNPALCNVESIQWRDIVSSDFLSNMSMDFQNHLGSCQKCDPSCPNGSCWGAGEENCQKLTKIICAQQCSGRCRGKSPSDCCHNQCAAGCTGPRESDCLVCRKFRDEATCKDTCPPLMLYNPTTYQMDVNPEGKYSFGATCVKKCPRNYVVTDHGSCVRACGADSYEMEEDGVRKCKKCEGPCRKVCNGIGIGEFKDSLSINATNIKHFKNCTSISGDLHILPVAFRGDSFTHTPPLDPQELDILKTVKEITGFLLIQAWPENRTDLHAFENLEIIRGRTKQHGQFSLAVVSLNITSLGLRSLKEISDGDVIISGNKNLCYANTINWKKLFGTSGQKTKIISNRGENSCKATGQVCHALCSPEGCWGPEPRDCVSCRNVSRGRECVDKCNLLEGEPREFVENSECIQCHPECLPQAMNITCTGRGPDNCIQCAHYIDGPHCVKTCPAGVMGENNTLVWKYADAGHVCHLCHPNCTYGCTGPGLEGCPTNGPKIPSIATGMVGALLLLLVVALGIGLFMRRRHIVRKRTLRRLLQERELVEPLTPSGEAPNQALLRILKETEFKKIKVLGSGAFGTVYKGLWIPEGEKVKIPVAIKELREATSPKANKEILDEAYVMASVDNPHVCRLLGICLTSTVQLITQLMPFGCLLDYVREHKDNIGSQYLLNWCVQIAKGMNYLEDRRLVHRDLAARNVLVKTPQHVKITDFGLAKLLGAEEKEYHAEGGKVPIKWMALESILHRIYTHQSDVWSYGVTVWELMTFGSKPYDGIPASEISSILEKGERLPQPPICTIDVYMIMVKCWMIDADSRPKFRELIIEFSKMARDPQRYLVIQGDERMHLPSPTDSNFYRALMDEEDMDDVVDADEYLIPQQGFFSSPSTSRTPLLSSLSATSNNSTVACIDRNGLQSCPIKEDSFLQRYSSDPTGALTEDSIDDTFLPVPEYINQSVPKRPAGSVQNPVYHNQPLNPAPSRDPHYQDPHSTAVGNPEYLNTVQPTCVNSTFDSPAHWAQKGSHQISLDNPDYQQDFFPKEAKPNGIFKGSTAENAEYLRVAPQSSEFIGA
As to the kind of experiment: EGFR substrate phosphorylation assay (HTRF). It counts as biochemical. As to the method:
(§4) Compounds of the present invention were tested for EGFR and ErbB-2 protein tyrosine kinase inhibitory activity in substrate phosphorylation assays using enzymes purified from a baculovirus expression system. Reagent production was conducted essentially as described in Brignola, P. S., et al., (2002) J. Biol. Chem. 277(2):1576-1585.
(§5) The method measures the ability of the isolated enzyme to catalyse the transfer of the gamma-phosphate from ATP onto the tyrosine residue of a biotinylated synthetic peptide referenced “Peptide C” in Brignola, P. S., et al., (2002) J. Biol. Chem. 277(2):1576-1585. The extent of tyrosine phosphorylation was measured using an anti-phosphotyrosine antibody, and quantified by homogenous time-resolved fluorescence (HTRF).
(§6) Reactions were performed in black 384-well polystyrene flat-bottom plates in a final volume of 20 μl. Assays were performed by adding 10 μl of each of the following solutions, Substrate Mix and Enzyme Mix: The Substrate Mix contained 100 mM 3-[N-morpholino]propanesulfonic acid (MOPS) (pH 7.5), 2 mM MnCl2, 20 μM ATP, 0.01% Tween-20, 0.1 mg/mL (BSA), 0.8 uM peptide substrate, and 1 mM dithiothreitol. The Enzyme Mix contained 100 mM MOPS (pH 7.5); 0.01% Tween-20; 0.1 mg/mL BSA, and either 0.8 nM EGFR, 10 nM ErbB2, or 1 nM ErbB4
(§7) During the course of these studies, two separate methods have been used to measure the potency of compounds. In Method A (indicated as “(A)” in the tables below), the Enzyme Mix was added to the compound plates and the plates were incubated at 20° C. for 1 hr. The reactions were then started by adding the Substrate Mix. In Method B (indicated as “(B)” in the tables below), the Substrate Mix was added to the compound plates first, then the reaction was started by adding the Enzyme Mix.
(§8) After initiating the reaction with either method describe above, the reactions were allowed to proceed for 90 minutes at 20° C. The reactions were then terminated by the addition of 20 μL 100 mM EDTA to each well. 40 μL/well of HTRF detection mix were added to the assay plates. The final concentrations of the detection reagents were: 100 mM HEPES (pH7.5), 0.1 mg/mL BSA, 15 nM streptavidin-labeled allophycocyanin (PerkinElmer), and 1 nM europium-labeled anti-phosphotyrosine antibody (PerkinElmer). Assay plates were left unsealed and were counted in a Wallac Multilabel Counter 1420 (PerkinElmer).
(§9) Compounds under analysis were dissolved in dimethylsulfoxide (DMSO) to 1.0 mM and serially diluted 1 to 3 with DMSO through twelve dilutions. 1 μL of each concentration was transferred to the corresponding well of an assay plate. This creates a final compound concentration range from 0.00027 to 47.6 μM.
(§10) The data for dose responses were plotted as % Inhibition calculated with the data reduction formula 100*(1−(U1−C2)/(C1−C2)) versus concentration of compound where U1 is the unknown value, C1 is the average control value obtained for 4.76% DMSO, and C2 is the average control value obtained for 0.035 M EDTA. Data were fitted with a curve described by:
(§11) where Vmax is the upper asymptote, Y2 is the Y intercept, and K is the IC50. The results for each compound were recorded as pIC50s, calculated as follows: […]
On the technique in general: Time-resolved FRET reads energy transfer from a long-lived donor to a nearby acceptor.

Another test has as its system SK-MEL-28 tumor cells. As to the kind of experiment: Method C: Cell Growth Inhibition Assay (CellTiter-Glo), SK-MEL-28. The following applies: Homo sapiens, SK-MEL-28, 72 h, 3 days, 4-parameter fit. It counts as cell-based. As to the method: as §1, §2, §3
In a further test the test system is BT474 tumor cells. In words: Method C: Cell Growth Inhibition Assay (CellTiter-Glo), BT474. The following applies: Homo sapiens, BT-474, 72 h, 3 days, 4-parameter fit. The test is classed as cell-based. As to the method: as §1, §2, §3
The target of a further test is T2, ErbB2 (Homo sapiens, UniProt P04626).
T2 construct: made in house; host or cells: baculovirus expression system
T2 sequence (P04626 23-1255): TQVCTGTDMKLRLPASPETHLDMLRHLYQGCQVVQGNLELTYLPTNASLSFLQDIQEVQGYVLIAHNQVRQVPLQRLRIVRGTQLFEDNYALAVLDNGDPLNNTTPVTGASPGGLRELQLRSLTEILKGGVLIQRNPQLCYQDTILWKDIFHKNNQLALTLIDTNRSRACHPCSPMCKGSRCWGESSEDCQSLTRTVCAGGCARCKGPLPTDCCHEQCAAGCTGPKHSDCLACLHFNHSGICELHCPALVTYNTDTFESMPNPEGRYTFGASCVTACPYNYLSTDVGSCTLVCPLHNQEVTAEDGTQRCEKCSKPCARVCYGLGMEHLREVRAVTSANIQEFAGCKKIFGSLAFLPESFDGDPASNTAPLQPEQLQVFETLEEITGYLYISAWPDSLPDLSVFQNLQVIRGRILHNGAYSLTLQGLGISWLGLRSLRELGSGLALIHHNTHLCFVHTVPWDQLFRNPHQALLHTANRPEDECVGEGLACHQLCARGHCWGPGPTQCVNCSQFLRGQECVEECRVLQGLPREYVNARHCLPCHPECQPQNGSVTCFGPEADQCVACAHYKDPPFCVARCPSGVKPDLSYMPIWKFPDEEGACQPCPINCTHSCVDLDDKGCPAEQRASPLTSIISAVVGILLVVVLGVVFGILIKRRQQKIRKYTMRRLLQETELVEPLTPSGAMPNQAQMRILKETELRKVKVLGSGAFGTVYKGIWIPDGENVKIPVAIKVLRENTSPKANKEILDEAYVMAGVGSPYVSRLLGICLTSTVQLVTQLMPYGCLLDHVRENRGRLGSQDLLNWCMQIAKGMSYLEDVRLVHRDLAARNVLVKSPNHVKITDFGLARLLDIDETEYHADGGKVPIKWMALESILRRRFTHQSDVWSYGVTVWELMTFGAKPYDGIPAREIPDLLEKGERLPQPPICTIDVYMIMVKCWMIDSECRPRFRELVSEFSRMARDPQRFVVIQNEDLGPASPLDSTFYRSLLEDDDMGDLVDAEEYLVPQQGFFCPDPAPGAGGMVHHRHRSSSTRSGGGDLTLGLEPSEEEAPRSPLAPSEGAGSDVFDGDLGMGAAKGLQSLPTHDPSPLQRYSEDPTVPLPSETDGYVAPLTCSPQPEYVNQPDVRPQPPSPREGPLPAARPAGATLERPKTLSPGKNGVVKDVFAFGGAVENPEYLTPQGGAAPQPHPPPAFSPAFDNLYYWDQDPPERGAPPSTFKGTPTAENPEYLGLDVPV
In words: ErbB-2 substrate phosphorylation assay (HTRF). The test is classed as biochemical. As to the method: as §4, §5, §6, §7, §8, §9, §10, §11

[1] abbreviates: Method (A): Enzyme Mix incubated with compound at 20° C. for 1 hr, reaction started by adding Substrate Mix.
The mark [2] stands for this setting: Method (B): Substrate Mix added to compound first, reaction started by adding Enzyme Mix.

On to `CN(C)CCOc1ccc(Nc2nccc(-c3sc(NS(=O)(=O)CC(F)(F)F)nc3-c3cccc(NC(=O)c4c(F)cccc4F)c3)n2)cc1` [Example 35, N-[3-(5-{2-[(4-{[2-(Dimethylamino)ethyl]oxy}phenyl)amino]-4-pyrimidinyl}-2-{[(2,2,2-trifluoroethyl)sulfonyl]amino}-1,3-thiazol-4-yl)phenyl]-2,6-difluorobenzamide], for which the IC50 with Colo205 tumor cells was greater than 1000 nM; on EGFR (setting [1]), less than 100 nM; with SK-MEL-28 tumor cells, greater than 1000 nM; in the test with BT474 tumor cells it was greater than 1000 nM; on ErbB2 (setting [1]) it was less than 100 nM.
As for `CN(C)c1nc(-c2cccc(NC(=O)c3c(F)cccc3F)c2)c(-c2ccnc(Nc3ccc(N4CCOCC4)c(Cl)c3)n2)s1` [Example 41, N-{3-[5-(2-{[3-Chloro-4-(4-morpholinyl)phenyl]amino}-4-pyrimidinyl)-2-(dimethylamino)-1,3-thiazol-4-yl]phenyl}-2,6-difluorobenzamide trifluoroacetate], the IC50 in the test on Colo205 tumor cells is greater than 1000 nM; on EGFR (setting [1]), less than 100 nM; in the test on SK-MEL-28 tumor cells it was greater than 1000 nM; on ErbB2 (setting [1]) it was less than 100 nM.
Consider `CN(C)c1nc(-c2cccc(NC(=O)c3c(F)cccc3F)c2)c(-c2ccnc(Nc3ccc(OCCN4CCCC4)nc3)n2)s1` [Example 43, N-[3-(2-(Dimethylamino)-5-{2-[(6-{[2-(1-pyrrolidinyl)ethyl]oxy}-3-pyridinyl)amino]-4-pyrimidinyl}-1,3-thiazol-4-yl)phenyl]-2,6-difluorobenzamide], for which the IC50 with Colo205 tumor cells was 100 to 1000 nM; at EGFR (setting [1]), less than 100 nM; with SK-MEL-28 tumor cells, greater than 1000 nM; on ErbB2 (setting [1]), less than 100 nM.
For the compound `CN1CCN(c2nc(-c3cccc(NC(=O)c4c(F)cccc4F)c3)c(-c3ccnc(Nc4cccc(CN5CCCC5)c4)n3)s2)CC1` [Example 46, 2,6-Difluoro-N-{3-[2-(4-methyl-1-piperazinyl)-5-(2-{[3-(1-pyrrolidinylmethyl)phenyl]amino}-4-pyrimidinyl)-1,3-thiazol-4-yl]phenyl}benzamide], the IC50 is 100 to 1000 nM in the test with Colo205 tumor cells; less than 100 nM on EGFR (setting [1]); greater than 1000 nM in the test on SK-MEL-28 tumor cells; 100 to 1000 nM in the test on BT474 tumor cells; less than 100 nM on ErbB2 (setting [1]).
With `O=C(Nc1cccc(-c2nc(N3CCC3)sc2-c2ccnc(Nc3ccc(OCCN4CCCC4)c(Cl)c3)n2)c1)c1c(F)cccc1F` [Example 47, N-[3-(2-(1-Azetidinyl)-5-{2-[(3-chloro-4-{[2-(1-pyrrolidinyl)ethyl]oxy}phenyl)amino]-4-pyrimidinyl}-1,3-thiazol-4-yl)phenyl]-2,6-difluorobenzamide], the concentration for half-maximal inhibition (IC50) with Colo205 tumor cells was greater than 1000 nM; on EGFR (setting [1]), less than 100 nM; in the test on SK-MEL-28 tumor cells it was greater than 1000 nM; in the test with BT474 tumor cells, greater than 1000 nM; on ErbB2 (setting [1]), less than 100 nM.
As to `O=C(Nc1cccc(-c2nc(N3CCCCC3)sc2-c2ccnc(Nc3cccc(CN4CCCC4)c3)n2)c1)c1c(F)cccc1F` [Example 73, 2,6-Difluoro-N-{3-[2-(1-piperidinyl)-5-(2-{[3-(1-pyrrolidinylmethyl)phenyl]amino}-4-pyrimidinyl)-1,3-thiazol-4-yl]phenyl}benzamide], the concentration for half-maximal inhibition (IC50) was 100 to 1000 nM in the test on Colo205 tumor cells; less than 100 nM at EGFR (setting [1]); greater than 1000 nM in the test with SK-MEL-28 tumor cells; 100 to 1000 nM with BT474 tumor cells; less than 100 nM at ErbB2 (setting [1]).
Turning to `Cc1nc(-c2cccc(NC(=O)c3c(F)cccc3F)c2)c(-c2ccnc(Nc3ccc(OCCN4CCCC4)c(Cl)c3)n2)s1` [Example 110, N-[3-(5-{2-[(3-Chloro-4-{[2-(1-pyrrolidinyl)ethyl]oxy}phenyl)amino]-4-pyrimidinyl}-2-methyl-1,3-thiazol-4-yl)phenyl]-2,6-difluorobenzamide], the IC50 was greater than 1000 nM in the test on Colo205 tumor cells; less than 100 nM on EGFR (setting [1]); greater than 1000 nM in the test with SK-MEL-28 tumor cells; 100 to 1000 nM in the test on BT474 tumor cells; less than 100 nM at ErbB2 (setting [1]).
In the case of `CCc1nc(-c2cccc(NC(=O)c3c(F)cccc3F)c2)c(-c2ccnc(Nc3ccc(N4CCC(N5CCCCC5)CC4)c(F)c3)n2)s1` [Example 116, N-{3-[5-(2-{[4-(1,4′-Bipiperidin-1′-yl)-3-fluorophenyl]amino}-4-pyrimidinyl)-2-ethyl-1,3-thiazol-4-yl]phenyl}-2,6-difluorobenzamide], the IC50 with Colo205 tumor cells is 100 to 1000 nM; at EGFR (setting [1]) it was less than 100 nM; with SK-MEL-28 tumor cells, greater than 1000 nM; on ErbB2 (setting [1]), less than 100 nM.
For `O=C(Nc1cccc(-c2nc(CF)sc2-c2ccnc(Nc3ccc(OCCN4CCCC4)c(F)c3)n2)c1)c1c(F)cccc1F` [Example 127], the IC50 in the test with Colo205 tumor cells is greater than 1000 nM; on EGFR (setting [1]) it was less than 100 nM; in the test on SK-MEL-28 tumor cells, greater than 1000 nM; at ErbB2 (setting [1]), less than 100 nM.
Consider `O=C(Nc1cccc(-c2ncoc2-c2ccnc(Nc3cccc(F)c3)n2)c1)c1c(F)cccc1F` [Example 141, 2,6-Difluoro-N-[3-(5-{2-[(3-fluorophenyl)amino]-4-pyrimidinyl}-1,3-oxazol-4-yl)phenyl]benzamide], for which the IC50 on EGFR (setting [2]) and on ErbB2 (setting [2]) was greater than 1000 nM in each case.

Broadly, the IC50 is the concentration at which inhibition is half-maximal.
